{"source": "patent US20210332139A1", "about": "“MODULATION OF LEUKOCYTE ACTIVITY IN TREATMENT OF NEUROINFLAMMATORY DEGENERATIVE DISEASE” (Leuvas Therapeutics, priority 2013, published 2021)", "key": {"[1]": {"system": "Bend.3 endothelial cell line", "test": "Adhesion molecule expression on Bend.3 endothelial cells (immunofluorescence)", "format": "cell-based, mouse", "parameters": "key: −: VCAM-1 and selectins were not expressed (indicated by -, Table 2); constitutively expressed at low levels on endothelial cells (indicated by +/−, some vessels were positive for ICAM-1, Table 2); an increase of ICAM-1 expression (indicated by +, Table 2)", "details": "Bend.3 cells, 10 μM Aβ1-42 oligomers, 18 h", "procedure": "We performed in vitro experiments to study the effect of soluble Aβ1-42 oligomers on the endothelial cell line Bend.3, derived from mouse cerebral cortex purchased by ATCC& Cell Biology Collection (CRL-2299TM).\nBriefly, Bend.3 were cultured at a concentration of 20×10^3/ml on a glass coverslip in 24-well plates containing DMEM supplemented with 10% Fetal Calf Serum (FCS). Cells were stimulated with 10 μM Aβ 1-42, for 18 h in DMEM with 1% FCS. […] positive control, cells were treated with 25 U/ml of TNFα for 18 h in DMEM with 1% FCS. Bend.3 were rinsed with PBS and fixed with 4% PFA for 10 minutes. Cells were washed with PBS incubated with blocking buffer for 1 h at RT° C. Primary antibodies were diluted in 1% Bovine Serum Albumin (BSA) PBS. Cells were incubated overnight at 4° C. with 50 μg/ml anti-VCAM (hybridoma MK2.7), 10 μg/ml anti-ICAM (hybridoma YN1.7), 0.5 μg/ml anti-CD31 (370700, Invitrogen), 5 μg/ml anti-E-selectin (hybridoma RME-1) and 1.5 μg/ml anti-P-selectin (CD62P, BD Pharmigen). The day after, cells were rinsed 2 times with PBS and then incubated with 7.5 μg/ml biotinylated secondary antibody (rabbit anti-rat, T0226, VectorLab) for 1 h at RT° C. Cells were rinsed 2 times with PBS and incubated with 25 μg/ml Avidin-TexasRed (A2006, Vector Lab) for 1 h at RT° C. in the dark. After rinsing in PBS, cells were incubated with 1 μg/ml Dapi (D9542, Sigma-Aldrich, St. Louis, Mo.), for 5 minutes in the dark. Finally, glass coverslip was transferred on glass slides and mounted with Dako medium (S3023, DAKO NORTH AMERICA, Carpinteria, Calif.). Glass slides were kept at 4° C. in the dark and acquired by LEICA fluorescence microscopy (DM6000B, LEICA, Germany).\nWe analyzed the expression of VCAM-1, ICAM-1, E- and P-selectin on Bend.3 after Aβ1-42 oligomers stimulation. TNF-α stimulation, which is well known to up-regulate the adhesion molecules expression, was used as positive control. We evaluated a dose-response effect of Aβ1-42 soluble oligomers on Bend.3 cells, ranging from 1 to 10 μM after 6 or 18 hours of treatment. After 18 h of treatment with 10 μM Aβ we observed a significant up-regulation of […] compared to non-stimulated control cells (CTRL) (Table 2). […] ICAM-1 was constitutively expressed at low levels on endothelial cells (indicated by +/−, some vessels were positive for ICAM-1, Table 2), but 18 h treatment with Aβ1-42 led to an increase of ICAM-1 expression (indicated by +, Table 2)."}, "[2]": {"system": "neutrophils", "test": "Rapid adhesion of neutrophils, soluble versus fibrillary Aβ1-42", "format": "cell-based", "details": "mean+/−SD", "from_the_text": "Although two-times less efficient than the soluble form, fibrillary Aβ triggered a significant increase of rapid neutrophil adhesion on both ICAM-1 and fibrinogen (Table 8; data are expressed as the mean+/−SD of bound cells in 0.2 mm^2 from three independent experiments made in duplicate)."}, "[3]": {"system": "human primary PMNs", "test": "Static adhesion of human primary PMNs to ICAM-1 with signaling inhibitors", "format": "cell-based", "details": "10 μM Aβ, 1 min; listed as Aβ oligo", "procedure": "As a model system, human primary PMNs were isolated form healthy donors stimulated to very rapid adhesion to purified human ICAM-1, ligand for the β2 integrins LFA-1 and Maci. fMLP (the classical chemoattractant) was the positive control. […] PMNs were treated for 30 min. with different concentrations of inhibitors followed by stimulation for 1 min with 50 nM fMLP or with 10 μM Aβ. The number of adherent cells was quantified by computer-assisted evaluation. Statistical analysis was SD."}}, "note": "“And” between values parts separate entries of the source, which are not always exact repeats. Equal entries are not always repeated."}
{"substance": "Abeta 1-42: soluble oligomeric amyloid-beta 1-42 peptide used as stimulus", "values": [{"measurement": "CD31 expression (endothelial cell marker)", "setting": "[1]", "value": "+"}, {"measurement": "E-sel expression", "setting": "[1]", "value": "+"}, {"measurement": "ICAM-1 expression", "setting": "[1]", "value": "+"}, {"measurement": "P-sel expression", "setting": "[1]", "value": "+"}, {"measurement": "VCAM-1 expression", "setting": "[1]", "value": "+"}, {"measurement": "Rapid adhesion to Fibrinogen", "setting": "[2]; 15 μM", "value": "180.7 ± 30.7", "unit": "bound cells in 0.2 mm^2"}, {"measurement": "Rapid adhesion to ICAM-1", "setting": "[2]; 15 μM", "value": "480.7 ± 61.7", "unit": "bound cells in 0.2 mm^2"}, {"measurement": "Rapid adhesion to Fibrinogen", "setting": "[2]; 30 μM", "value": "419.2 ± 30.7", "unit": "bound cells in 0.2 mm^2"}, {"measurement": "Rapid adhesion to ICAM-1", "setting": "[2]; 30 μM", "value": "738.5 ± 29.3", "unit": "bound cells in 0.2 mm^2"}, {"measurement": "Adherent hPMNs to ICAM-1, Aβ oligo, Mean, Control (no inhibitor)", "setting": "[3]", "value": "464.0 and 500.8 and 464.5 and 455.0 and 475.5 and 470.7"}]}
